According to patent publication EP4670719A1, “PHARMACEUTICAL COMPOSITION OF BENZO NITROGEN HETEROAROMATIC RING DERIVATIVE AND USE THEREOF IN MEDICINE” (Haisco Pharmaceutical Group Co., Ltd., priority 2023, dated 2024):

Legend:
[1] = i.g. (10 mg/kg)
[2] = system: complement alternative pathway; experiment: Test of inhibitory effect on the complement alternative pathway (IBL alternative pathway kit, LPS-coated plate); type: biochemical, healthy volunteers; settings: inhibiting the alternative pathway; diluted serum, 30 min pretreatment, 1 h at 37°C
Experimental: The inhibitory effect of the compounds on the complement alternative pathway was detected using the IBL alternative pathway kit (COMPL AP330 RUO). Serum from healthy volunteers was collected and 1 portion was diluted with a buffer of 20 mM EDTA in gelatin (0.15 mM CaCl2, 141 mM NaCl, 4.5 mM MgCl2, 4.2 mM HEPES, and 0.1% gelatin at pH 7.4) to 50% (v/v), and 1 portion was diluted to 50% (v/v) with a buffer of 20 mM EGTA in gelatin. The compounds were prepared in DMSO to a working solution 100 times the final concentration. Before use, 50% of the above serum was diluted 1/18 with an AP diluent in the kit. 1 part of the compound working solution (v/v) or DMSO (positive control PC) was added to 99 parts of the diluted serum containing EGTA for pretreatment for 30 min, and 1 part of DMSO (v/v) was added to 99 parts of the diluted serum containing EDTA, as negative control (NC). The serum pretreated with the above compounds (or DMSO) was added at […] to an LPS-coated 96-well plate and incubated at 37°C for 1 h, and the plate was washed 3 times with washing solution in the kit, and the conjugated chromogenic substrate was added according to the instruction in the kit, and the absorbance was read at 405 nm with a microplate reader. The inhibitory activity of the compounds on alternative pathway was calculated using the following formula. […]

| AUC0-24 h ([1]; rat plasma) [ng·h/mL] | Cmax ([1]; rat plasma) [ng/mL] | T1/2 ([1]; rat plasma) [h] | Tmax ([1]; rat plasma) [h] | F% ([1]; rats) [%] | Compound | IC50 [2] [nM] |
| --- | --- | --- | --- | --- | --- | --- |
| 9867 | 867 | 3.39 | 3.5 | 49 | CCO[C@H]1CCN(Cc2c(OC)cc(C)c3[nH]ccc23)[C@H](c2ccc(C(=O)O)cc2)C1 [LNP023] | – |
| – | – | – | – | – | COc1cc(C)c2[nH]ccc2c1CN1CC[C@@H](C2CC2)C[C@H]1c1ccc(C(=O)O)cc1 [Trifluoroacetate of compound 2] | < 200 |
| – | – | – | – | – | [2H]C([2H])([2H])Oc1cc(C)c2[nH]ccc2c1CN1CC[C@@H](C2CC2)C[C@H]1c1ccc(C(=O)O)cc1 [Trifluoroacetate of compound 1] | < 200 |
